# Data as given in ChEMBL document CHEMBL2429795, “New route for synthesis, spectroscopy, and X-ray studies of 2-[aryl-(6-hydroxy-4,4-dimethyl-2-oxocyclohex-6-enyl)methyl]-3-hydroxy-5,5-dimethylcyclohex-2-enone and 1,8-dioxo-octahydroxanthenes and antitumor evaluation” (Med Chem Res, 2013).
# Tests used:
# [1] = Cytotoxicity against human NCM460 cells assessed as decrease in cell viability up to 25 uM after 4 to 20 hrs by trypan blue exclusion assay; type: cell-based
# WI-38 [2] = test: Cytotoxicity against human WI38 cells assessed as decrease in cell viability up to 25 uM after 4 to 20 hrs by trypan blue exclusion assay; type: cell-based
# PrEC [3] = test: Cytotoxicity against human PrEC assessed as decrease in cell viability up to 25 uM after 24 hrs by trypan blue exclusion assay; type: cell-based
# [4] = Cytotoxicity against human NCM460 cells assessed as growth inhibition after 48 hrs by trypan blue exclusion assay; type: cell-based; conditions: for IC50: Homo sapiens, NCM460, 48 h; for growth inhibition (GI): human, ncm460, 48 h
# PrEC [5] = test: Cytotoxicity against human PrEC assessed as growth inhibition after 48 hrs by trypan blue exclusion assay; type: cell-based; conditions: for IC50: Homo sapiens, PrEC; for growth inhibition (GI): human, prec
# WI-38 [6] = test: Cytotoxicity against human WI38 cells assessed as growth inhibition after 48 hrs by trypan blue exclusion assay; type: cell-based; conditions: for IC50: Homo sapiens, WI-38, 48 h; for growth inhibition (GI): human, wi-38, 48 h
# SF-268 = test: Cytotoxicity against human SF268 cells assessed as growth inhibition after 48 hrs by sulforhodamine B assay; type: functional, cell-based; conditions: for IC50: SF-268, 48 h
# NCI-H460 = test: Cytotoxicity against human NCI-H460 cells assessed as growth inhibition after 48 hrs by sulforhodamine B assay; type: functional, cell-based; conditions: for IC50: NCI-H460, 48 h
# MCF7 = test: Cytotoxicity against human MCF7 cells assessed as growth inhibition after 48 hrs by sulforhodamine B assay; type: functional, cell-based; conditions: for IC50: MCF7, 48 h
Compound,Activity [1],Activity (WI-38 [2]),Activity (PrEC [3]),IC50 [4] [nM],growth inhibition (GI) [4],IC50 (PrEC [5]) [nM],growth inhibition (GI) (PrEC [5]),IC50 (WI-38 [6]) [nM],growth inhibition (GI) (WI-38 [6]),growth inhibition (GI) (SF-268),IC50 (SF-268) [nM],growth inhibition (GI) (NCI-H460),IC50 (NCI-H460) [nM],growth inhibition (GI) (MCF7),IC50 (MCF7) [nM]
CC1(C)CC(=O)C(C(C2=C(O)CC(C)(C)CC2=O)c2ccco2)=C(O)C1,Non-toxic,Non-toxic,Non-toxic,60,Dose-dependent effect,330,Dose-dependent effect,80,Dose-dependent effect,Dose-dependent effect,30,Dose-dependent effect,30,Dose-dependent effect,30
CC1(C)CC(=O)C(C(C2=C(O)CC(C)(C)CC2=O)c2ccccc2)=C(O)C1,Non-toxic,Non-toxic,Non-toxic,2430,Dose-dependent effect,1290,Dose-dependent effect,2180,Dose-dependent effect,Dose-dependent effect,20,Dose-dependent effect,10,Dose-dependent effect,20
COc1cccc2c1C(=O)c1c(O)c3c(c(O)c1C2=O)C[C@@](O)(C(=O)CO)C[C@@H]3O[C@H]1C[C@H](N)[C@H](O)[C@H](C)O1 [DOXORUBICIN],,,,,,,,,,,90,,90,,40
CC1(C)CC(=O)C2=C(C1)OC1=C(C(=O)CC(C)(C)C1)C2c1ccccc1,Non-toxic,Non-toxic,Non-toxic,90,Dose-dependent effect,450,Dose-dependent effect,470,Dose-dependent effect,Dose-dependent effect,36300,Dose-dependent effect,20100,Dose-dependent effect,30400
